{
  "source": "paper PMC3954451",
  "about": "(Journal of Medicinal Chemistry, 2014)",
  "key": {"[1]": {"test_system": "Caco-2 cells", "details": "10 μM, 2 h"}, "[2]": {"test_system": "Caco-2 cells", "details": "cited from earlier work"}, "[3]": {"details": "cited from earlier work"}},
  "data": [
    {"compound": "Cl.Cl.Nc1ccc2ccc(CCNCCc3cccc(F)c3)cc2n1", "note": "[Compound 7, 7-[(3-Fluorophenethylamino)ethyl]quinolin-2-amine Dihydrochloride]", "values": [
      {"measurement": "membrane permeability in the apical to basolateral (A→B) direction, in words", "setting": "[1]", "value": "good"}
    ]},
    {"compound": "Cl.Cl.Cl.Nc1ccc2ccc(CCNCCc3cccc(Cl)c3)cc2n1", "note": "[Compound 15, 7-[(3-Chlorophenethylamino)ethyl]quinolin-2-amine Dihydrochloride]", "values": [
      {"measurement": "membrane permeability in the apical to basolateral (A→B) direction, in words", "setting": "[1]", "value": "good"}
    ]},
    {"compound": "Cl.Cl.N=C(Nc1cccc(CNCCc2cccc(F)c2)c1)c1cccs1", "note": "[Compound 3]", "values": [
      {"measurement": "Caco-2 permeability, in words", "setting": "[2]", "value": "poor"}
    ]},
    {"compound": "Nc1ccccn1", "note": "[2-aminopyridine]", "values": [
      {"measurement": "pKa", "setting": "[3]", "value": 7.1}
    ]}
  ]
}
